The values that follow come from patent US6084072A, “Purified lectin and methods of use” (The Regents of the University of Michigan, priority 1993, dated 2000).

Several values for one entry are separate records, joined by “and”; a condition that tells them apart may be missing. Equal entries are not always repeated. Where two headings read alike, the source gives them in different places.

Test [1] relates to asialo-ovine submaxillary mucin. In words: Metal analysis of amaranthin activity in the precipitation assay. Format: binding. As to the method:
For metal analysis two methods were used to determine if metals were necessary for amaranthin activity. 1) Amaranthin was dialyzed against 1 N acetic acid at 4° C. overnight, and then against 20 mM phosphate buffer at pH 7.2. The acid dialyzed amaranthin was then used in the standard precipitation assay with asialo-ovine submaxillary mucin and the indicated additions. 2) After dialysis into metal free buffer, amaranthin was incubated for 1 hour at room temperature in the presence of the indicated ethylene diamine tetraacetate (EDTA) concentrations. Asialo-ovine submaxillary mucin was then added, and the precipitation assay was carried out as usual. All glassware was acid-washed and buffers were passed over a Chelex 100 column, a trademarked, column commercially available from Bio-Rad to remove divalent metal ions.

A further test relates to FAP colonic tissue. Briefly: Lectin histochemistry, familial adenomatous polyposis (FAP) colonic tissue. The format is binding, human. From the text: Full thickness specimens of colonic tissue were obtained from colectomy specimens for familial adenomatous polyposis at Johns Hopkins Hospital, fixed in formalin, and embedded in paraffin for tissue sectioning. The tissue specimens contained normal-appearing flat mucosa familial adenomatous polyposis, or FAP-normal, as well as a polypoid, adenomatious tissue familial adenomatous polyposis, or FAP-abnormal.
(§1) Four micron paraffin embedded tissue sections attached to glass slides were deparaffinized by serial incubations in xylene (twice), absolute ethanol (thrice), 95% ethanol, 70% ethanol, water and finally equilibrated in phosphate buffered saline (PBS), pH 7.0, containing 0.1% bovine serum albumin (BSA) commercially available from Sigma Corp of St. Louis, Mo. The slides were blotted dry adjacent to the tissue sections, and biotinylated lectin was added at a concentration of 10 μg/ml (for ACA) and 20 μg/ml (for PNA) in a quantity sufficient to completely cover the hydrated tissue (100-2001 μl). The lectin was rinsed off after a 30 minute incubation by eight 2-second dips into phosphate buffered saline. The slides were again blotted, and the tissue covered with Streptavidin-horseradish peroxidase (HRP) obtained from Zymed Laboratories, San Francisco, Calif. at a concentration of 10 μg/ml for 30 minutes. The slides were rinsed as mentioned above, and the pigmented reaction product developed by the addition of a freshly prepared chromogen reagent solution prepared within two hours of use as follows.
3,3'-diaminobenzidine was aliqotted at 5 mg/mL in 0.01 M (Tris) tris hydroxy methyl amino methane saline, pH 7.5 and frozen at -70° C. until use. For use, the aliquot was thawed, diluted 1:10 in 0.01 M (Tris) tris hydroxy methyl amino methane saline pH 7.5, and 3.3 μL of 30% H2 O2 were added to each 5 ml. This solution was allowed to stand for 10 min, and 100-200 μl was applied to the tissue sections that had been incubated earlier with biotinylated lectin and Streptavidin-HRP. After 10 min, the slides were rinsed with albumin-free phosphate buffered saline. […]
A second method for scoring tissues was used to survey normal colonic tissues, adenomatous polyps, and cancers. For these studies, individual epithelial "units" were counted as either positive or negative; i.e., each crypt of Lieberkuhn or neoplastic gland was considered an independent scorable unit, and the tissue score was expressed in terms of the percentage of units with any degree of definite labeling as from 1^+ to 4^+. […]
(§2) Therefore, each individual crypt of Lieberkuhn was given a score from 0-4^+, and the labeling was expressed as a "weighted average", or, the sum of scores from 100 crypts, which could range from 0 (all crypts not labeled) to 400 (all 100 crypts maximally labeled). […]

A further test deals with HNPCC tissues. Briefly: Lectin histochemistry, HNPCC rectal biopsies. Format: binding, human. More on the design: key to Staining (global score 0-3+): 4^+: Maximum labeling of the brown reaction product; 0: No staining of the slide compared to control sections; 1^+: trace or weak staining definitely not seen on control slides; 2+3^+: stronger staining, but definitely less than maximal. As to conditions: listed as ACA; for Weighted Average (0-400): mean ± SEM.
Source text: Rectal biopsies were obtained from individuals who were first degree relatives of patients with hereditary nonpolyposis colorectal cancer (HNPCC) as identified by H. T. Lynch, M.D. These patients were the siblings or offspring of index patients who fit the criteria for Lynch Syndrome I or II. See Drzeniek, Z., and Usowska, E. (1979) Arch. Immunol Ther. Exp. 27, 253-262. However, since there is no definitive genetic or phenotypic marker for this familial syndrome, it is not possible to be certain that these patients represent a single homogenous genetic abnormality. The biopsies were fixed in formalin, and embedded in paraffin for tissue sectioning.
as §1, with “follows. […]” for “follows.”
as §2

Test [2] has as its system normal colonic epithelium. The format is binding, human. More on the design: key to Labeling of normal colon in the tissue survey / Staining (global score 0-3+): 4^+: Maximum labeling of the brown reaction product; 0: No staining of the slide compared to control sections; 1^+: trace or weak staining definitely not seen on control slides; 2+3^+: stronger staining, but definitely less than maximal.

[3] abbreviates: biotinylated ACA 10 μg/mL or PNA 20 μg/mL.

amaranthin: the “% Control reactivity” value in test [1] (5 mM EDTA) is recorded as 100%; in test [1] (25 mM EDTA), 100%; in test [1] (Acid dialyzed amaranthin & AOSM) it was 81%; in test [1] (Acid dialyzed amaranthin & AOSM, 0.1 mM CaCl2) it was 80%; in test [1] (Acid dialyzed amaranthin & AOSM, 0.1 mM MgCl2), 80%; in test [1] (Acid dialyzed amaranthin & AOSM, 0.1 mM MnCl2) it was 79%. The “effect of EDTA on precipitating activity, in words” value in test [1] (ethylene diamine tetra acetate 5-25 mM) is reported as “had no effect”. The “Weighted Average (0-400)” value in the test on FAP colonic tissue (FAP, mean ± SEM, listed as ACA) turned out to be 224±76; in the test with HNPCC tissues (HNPCC outliers), 203±43; in the test on HNPCC tissues (HNPCC), 74±70; in test [2] (sum of scores of 100 epithelial units, mean ± SEM, listed as ACA) it was 65±33. Also, in the test with FAP colonic tissue (all 28 specimens, mean), the “Percent of epithelial glands with bound lectin” value is 67±6%. In addition, the “Percent of Epithelial Units Labeled” value with FAP colonic tissue (flat tissue, mean ± SEM, listed as ACA) was 60±7% and 60%±7%; in the test on FAP colonic tissue (polypoid tissue, mean ± SEM, listed as ACA) it was 83±7% and 83%±7%; in test [2] (lower half of crypt, mean ± SEM, listed as ACA), 46±4% and 46%±4%; in test [2] (upper half of crypt, mean ± SEM, listed as ACA), 7±2% and 7%±2%. For the same substance, the “Staining (global score 0-3+)” value (in the test with HNPCC tissues (setting [3]); in test [2] (setting [3])) was 1^+ throughout. Also, the “Labeling of normal colon in the tissue survey” value in test [2] is 1^+.
